killing, activity and mortality data for 18 molecules are collected here from patent US5393729A, “3-aryl-pyrone derivatives” (Bayer Aktiengesellschaft, priority 1992, dated 1995).

Assay [1] relates to Trichinella spiralis. Description: Trichinella spiralis in vitro. The note with it: 120 h, 5 days at 19° C., read-out: destruction (very good action). Here is the method:
Trichinella spiralis in vitro
Trichina larvae are isolated from the muscles of mice and washed with 0.9% NaCl supplemented with 20 μg/ml sisomycin and 2 μg/ml of clotrimazole. The actual incubation for approximately 20 trichinas per measurement was effected in 2 ml of a solution consisting of 10 g Bacto Casitone, 5 g of yeast (yeast extract), 2.5 g of glucose, 0.4 g of KH2 PO4, 0.4 g of K2 HPO4 per 500 ml, pH 7.2, containing 10 μg/ml of sisomycin and […] of clotrimazole. 10 mg of the substance to be tested are dissolved in 0.5 ml of DMSO, and such an amount is added to the incubation medium that the end concentrations are 100, 10 and 1 μg/ml. After incubation for 5 days at 19° C., the test is evaluated. The following key is used for the evaluation: 0=no action, the number of live larvae and worms is lower than in the case of the control; 2=good action, dead trichinas can be found; 3=very good action, all trichinas are dead.

The test system of assay [2] is Digitaria. Briefly: Pre-emergence test, Digitaria. Format: in vivo. The note with it: 504 h, after three weeks, 0%=no action, 100%=total destruction, read-out: % Activity (damage to the plants). The procedure: (§1) Solvent: 5 parts by weight of acetone
(§2) Emulsifier: 1 part by weight of alkylaryl polyglycol ether
(§3) To produce a suitable preparation of active compound, 1 part by weight of active compound is mixed with the stated amount of solvent, the stated amount of emulsifier is added and the concentrate is diluted with water to the desired concentration.
(§4) Seeds of the test plants are sown in normal soil and, after 24 hours, watered with the preparation of the active compound. It is expedient to keep constant the amount of water per unit area. The concentration of the active compound in the preparation is of no importance, only the amount of active compound applied per unit area being decisive. After three weeks, the degree of damage to the plants is rated in % damage in comparison to the development of the untreated control. The figures denote:
(§5) 0%=no action (like untreated control)
(§6) In this test, the following results were obtained at an exemplary application rate of 500 g/ha, the active compounds being tolerated well to very well by soya beans: […]

Assay [3] concerns Echinochloa. Description: Pre-emergence test, Echinochloa. Type of assay: in vivo. The note with it: 504 h, after three weeks, 0%=no action, 100%=total destruction, read-out: % Activity (damage to the plants). Here is the method: as §1, §2, §3, §4, §5, §6
The subject of assay [4] is Panicum. Description: Pre-emergence test, Panicum. Type of assay: in vivo. The following applies: 504 h, after three weeks, 0%=no action, 100%=total destruction, read-out: % Activity (damage to the plants). Here is the method: as §1, §2, §3, §4, §5, §6
For assay [5], the system named is Setaria. Description: Pre-emergence test, Setaria. Format: in vivo. The note with it: 504 h, after three weeks, 0%=no action, 100%=total destruction, read-out: % Activity (damage to the plants). Here is the method: as §1, §2, §3, §4, §5, §6
Assay [6] deals with larvae of the green rice cicada (Nephotettix cincticeps). Briefly: whole plant or invertebrate. Type of assay: in vivo. The following applies: 144 h, read-out: destruction of cicadas. The procedure:
Solvent: 7 parts by weight of dimethylformamide
as §2
To produce a suitable preparation of active compound, 1 part by weight of active compound is mixed with the stated amount of solvent and the stated amount of emulsifier, and the concentrate is diluted with water to the desired concentration.
Rice seedlings (Oryza satira) are treated by being dipped into the preparation of active compound of the desired concentration and are infested with larvae of the green rice cicada (Nephotettix cincticeps) while the seedlings are still moist.
After the specified period of time, the destruction in % is determined. 100% means that all the cicadas have been killed; 0% means that none of the cicadas have been killed.

For the molecule `Cc1cc(C)c(-c2c(O)c(C#N)c(-c3ccccc3Cl)oc2=O)c(C)c1` [Example 13], the killing at 100 ppm in assay [1] is 100%.
The same measure, in the same setting: then `CCOC(=O)c1c(-c2ccccc2F)oc(=O)c(-c2c(C)cc(C)cc2C)c1O` [Example 14], with 100%; and `CCOC(=O)c1c(-c2ccc([N+](=O)[O-])cc2)oc(=O)c(-c2c(C)cc(C)cc2C)c1O` [Example 15], with 100%; and `Cc1cc(C)c(-c2c(O)c(C(=O)N3CCOCC3)c(C)oc2=O)c(C)c1` [Example 18], with 100%.
The same measure, in the same setting: the value for `Cc1cc(C)c(-c2c(O)c(C(=O)c3ccccc3)c(C)oc2=O)c(C)c1` [Example 26] was 100%.
Consider `Cc1cc(C)c(-c2c(O)c(C(C)C)c(C)oc2=O)c(C)c1` [Example 33], for which the activity at 500 g/ha in assay [2] lay in the range of 90 to 100%; in assay [3], 70 to 100%; in assay [4] it was 95 to 100%; in assay [5] it was 70 to 100%.
As for `Cc1cc(C)c(-c2c(O)cc(C)oc2=O)c(C)c1` [Example 34], the mortality at 0.1 % in assay [6] was determined as 100%. For the same molecule, the activity at 500 g/ha in assay [2] lay in the range of 90 to 100%; in assay [3], 70 to 100%; in assay [4], 95 to 100%; in assay [5], 70 to 100%.
For the molecule `CCc1c(C)oc(=O)c(-c2c(C)cc(C)cc2C)c1O` [Example 35], the mortality at 0.1 % in assay [6] came to 100%. The activity at 500 g/ha in assay [2] fell in the range of 90 to 100%; in assay [4] it was 95 to 100%; in assay [5], 70 to 100%.
For `CCCc1c(CC)oc(=O)c(-c2c(C)cc(C)cc2C)c1O` [Example 37], the mortality at 0.1 % in assay [6] was 100%. Further, the activity at 500 g/ha was in the range of 70 to 100% in assay [3], 95 to 100% in assay [4] and 70 to 100% in assay [5]. For the same molecule, the killing at 100 ppm in assay [1] is 100%.
As to `Cc1cc(C)c(-c2c(O)cc(-c3ccccc3F)oc2=O)c(C)c1` [Example 51], in assay [6], the mortality at 0.1 % stood at 100%.
Turning to `Cc1cc(C)c(-c2c(O)cc(-c3ccco3)oc2=O)c(C)c1` [Example 56], in assay [6], the mortality at 0.1 % was 100%. Further, the activity at 500 g/ha in assay [3] lay within 70 to 100%; in assay [4], 95 to 100%; in assay [5] it was 70 to 100%. The killing at 100 ppm in assay [1] worked out at 100%.
With `Cc1cc(C)c(-c2c(O)cc(-c3cccs3)oc2=O)c(C)c1` [Example 58], the mortality at 0.1 % in assay [6] turned out to be 100%.
Consider `Cc1cc(C)c(-c2c(O)cc(-c3cc(Cl)c(Cl)s3)oc2=O)c(C)c1` [Example 60], for which the activity at 500 g/ha in assay [2] is 90 to 100%; in assay [4], 95 to 100%; in assay [5] it was 70 to 100%.
For `Cc1cc(C)c(-c2c(O)cc(-c3cc(C)sc3C)oc2=O)c(C)c1` [Example 62], the mortality at 0.1 % in assay [6] was determined as 100%. Besides, the activity at 500 g/ha in assay [2] is 90 to 100%; in assay [4] it was 95 to 100%.
As for `Cc1cc(C)c(-c2c(O)cc(-c3cccnc3)oc2=O)c(C)c1` [Example 63], the activity at 500 g/ha is 90 to 100% in assay [2], 70 to 100% in assay [3], 95 to 100% in assay [4] and 70 to 100% in assay [5].
Consider `Cc1cc(C)c(-c2c(O)c3c(oc2=O)CCCC3)c(C)c1` [Example 68], for which the mortality at 0.1 % in assay [6] is 100%. Also, the activity at 500 g/ha in assay [2] was 90 to 100%; in assay [3], 70 to 100%; in assay [4], 95 to 100%; in assay [5] it was 70 to 100%.
For `Cc1cc(C)c(-c2c(O)c3c(oc2=O)CCC3)c(C)c1` [Example 69], the mortality at 0.1 % in assay [6] came to 100%. In addition, the activity at 500 g/ha in assay [2] lay in the range of 90 to 100%; in assay [3] it was 70 to 100%; in assay [4] it was 95 to 100%; in assay [5] it was 70 to 100%.
On to `Cc1cc(C)c(-c2c(O)c3c(oc2=O)CCOC3)c(C)c1` [Example 71], for which the mortality at 0.1 % in assay [6] was found to be 100%.
